From US8933202B2, “AXL antibodies” (U3 Pharma GmbH, priority 2007, dated 2015)

What was measured:
Type in all cases: cell-based, human
[1] = test system: C-8161 melanoma cells; experiment: Soft agar colony formation assay, combination with cisplatin; settings: 0.25 to 1.5 μM cisplatin, 5 days, compared to untreated control cells
Protocol: Soft agar assays were conducted in order to investigate the ability of anti-Axl antibodies of the invention to inhibit anchorage-independent cell growth either alone or in combination with chemotherapeutic agents. The soft agar colony formation assay is a standard in vitro assay to test for transformed cells, as only transformed cells are able to grow in soft agar.
In brief, 750 C-8161 melanoma cells either remained untreated or were pre-incubated with the antagonistic rat anti-Axl antibody 11B7 at 15 μg/ml in IMDM medium (Gibco) for 30 min at 37° C. Subsequently, cells were combined with Difco noble agar solution resulting in 50 μl of top agar cell suspension at concentrations of Agar, FCS, and 11B7 of 0.35%, 0.2%, and 7.5 μg/ml, respectively. This cell suspension was plated on top of 50 μl of a 0.7% agarose bottom layer containing 20% FCS, and was finally covered with another 50 μl of a feeding layer solution that contains 0.2% FCS as well as cisplatin in according concentrations. In the whole of 150 μl per sample, the final concentrations of 11B7 and cisplatin were 2.5 μg/ml and 1.5 μM, 1.0 μM, 0.75 μM, 0.5 μM, or 0.25 μM, respectively. Colonies were allowed to form for 5 days and were then stained with 50 μl MTT (Sigma, 1 mg/ml in PBS) for 3 hours at 37° C. Using a Scanalyzer HTS camera system in conjunction with the HTS Bonit colony formation software (Lemnatec, Wuerselen), the effect of the antagonistic rat anti-Axl antibody 11B7 in the absence or presence of cisplatin were analyzed in triplicates.

[2] = test system: NCI/ADR-RES ovarian cancer cells; experiment: TUNEL staining, combination with doxorubicin; settings: 24 h
From the text: As rat anti-Axl antibodies of the invention turned out to interfere with Gas6-mediated anti-apoptosis of serum-starved NIH3T3-Axl cl.7 fibroblasts, the question arose, whether antagonistic anti-Axl antibodies would synergize with chemotherapeutic agents in inducing apoptosis, thereby contributing to overcome drug resistance. In this example, NCI/ADR-RES (originally named MCF-7/AdrR) cells—a ovarian cancer cell line (Liscovitch and Ravid, 2007, Cancer Letters, 245, 350-352) displaying a high level of resistance to several agents including doxorubicin (Fairchild et al., 1987, Cancer Research, 47, 5141-5148; Xu et al., 2002, The Journal of Pharmacology and Experimental Therapeutics, 302, 963-971)—were incubated with the antagonistic anti-Axl antibody 11B7 and/or doxorubicin, and apoptosis rates were determined by TUNEL staining. In brief, 3×10^4 NCI/ADR-RES cells in normal growth medium were seeded per well of an 8-chamber culture slide (BD Falcon, cat#354118) which were pre-incubated with the same medium for 1 h at 37° C. The next morning, normal growth medium was removed and cells were washed with and cultured in serum-reduced (0.5% FCS) medium. In the evening, isotypic control antibody 1D5 or the antagonistic anti-Axl antibody 11B7 were added at final concentrations of 10 μg/ml each. In the morning of day 3, doxorubicin at final concentrations of 100 μM, 150 μM, or 200 μM was added, and cells were incubated at 37° C. After 24 h, cells were rinsed once with PBS, fixed with 4% formaldehyde in PBS (pH 7.5) for 20 min at room temperature, air-dried for 5 min, and stored at −20° C. Using the commercially available Fluorescein-FragEL™ kit (Oncogene, cat#QIA39, presently being distributed through Merck-Calbiochem), TUNEL staining was performed according to the supplier's manual instructions (chapter ‘Fluorescein-FragEL™ of cell preparations fixed on slides’, page 10). Applying fluorescence microscopy, cells were analyzed and photos were taken.

[3] = test system: NCI-H292 lung cancer cells; experiment: Wound healing/scratch assay; settings: 10 μg/ml antibody, 24 h, compared to isotypic control antibody
From the text: To examine the migration and proliferation rates of different cells and culture conditions, in vitro wound healing/scratch assays are being employed for many years. These assays generally involve growing a confluent cell monolayer first. A small area is then disrupted and a group of cells are being destroyed or displaced by scratching a line through the layer with, for example, a pipette tip. The open gap is then inspected microscopically over time as the cells move in and fill the damaged area (“healing”). In brief, 1.5×10^6 NCI-H292 lung cancer cells were seeded per well of a 12 well dish and cultured in normal growth medium (RPMI, 10% FCS). After 8 h, cells were rinsed with PBS and starved in low serum medium (RPMI, 0.5% FCS) over night for 24 h. Using a sterile 200 μl pipette tip, three separate uniform wounds per well were scratched through the confluent NCI-H292 cell monolayers. […] Cells were permitted to migrate into the area of clearing for 24 h, washed once with PBS and fixed with ice cold Methanol (100%) at −20° C. After cells were stained with crystal violet (0.5% in 20% Methanol), rinsed with water and dried over night, photos of the wounds were taken.

Molecule: N.N.[Cl][Pt][Cl] [cisplatin, reference compound]
- soft agar colony growth, cisplatin alone [1]: colony growth retardation in a dose-dependent manner

Molecule: COc1cccc2c1C(=O)c1c(O)c3c(c(O)c1C2=O)C[C@@](O)(C(=O)CO)C[C@@H]3O[C@H]1C[C@H](N)[C@H](O)[C@H](C)O1 [doxorubicin, reference compound]
- apoptosis (TUNEL staining), doxorubicin with control antibody, 100 μM ([2]; 100 μM doxorubicin + 10 μg/ml control antibody): No TUNEL staining, and hence no apoptosis
- apoptosis (TUNEL staining), doxorubicin with control antibody, 150 μM ([2]; 150 μM doxorubicin + 10 μg/ml control antibody): only very week apoptosis

B1: Ch11D5-IgG2: chimeric anti-AXL antibody 11D5 with human IgG2 (antibody)
heavy: EVQLQESGPGLVKPSQSLSLTCSVTGYSITSNYWGWIRKFPGNKMEWIGHITNSGNTTYNPSLKSRISISRDTSRNQFFLQLNSVTTEDTATYYCAKGAFDYWGQGVMVTVSSASTKGPSVFPLAPCSRSTSESTAALGCLVKDYFPEPVTVSWNSGALTSGVHTFPAVLQSSGLYSLSSVVTVPSSNFGTQTYTCNVDHKPSNTKVDKTVERKCCVECPPCPAPPVAGPSVFLFPPKPKDTLMISRTPEVTCVVVDVSHEDPEVQFNWYVDGVEVHNAKTKPREEQFNSTFRVVSVLTVVHQDWLNGKEYKCKVSNKGLPAPIEKTISKTKGQPREPQVYTLPPSREEMTKNQVSLTCLVKGFYPSDIAVEWESNGQPENNYKTTPPMLDSDGSFFLYSKLTVDKSRWQQGNVFSCSVMHEALHNHYTQKSLSLSPGK
light: DIQMTQSPSSMSTSLGDRVTITCRASQDIGNYLSWFQQKVGKSPRRMIYGAIKLAVGVPSRFSGSRSGSDYSLTISSLESEDMAIYYCLQYIQFPLTFGSGTKLELKRTVAAPSVFIFPPSDEQLKSGTASVVCLLNNFYPREAKVQWKVDNALQSGNSQESVTEQDSKDSTYSLSSTLTLSKADYEKHKVYACEVTHQGLSSPVTKSFNRGEC
- re-population of the cleared area (wound closure) [3]: reduced the re-population of the cleared area

B2: ch11B7-IgG2: chimeric anti-AXL antibody 11B7 with human IgG2 (antibody)
heavy: EVQLQESGPGLVKPSQSLSLTCSVTGYSITSNYWGWIRKFPGDKMEWMGYITYSGSTSYNPSLKSRISITRDTSKNQFFLQLNSVTSEDTATYYCAITTFYYWGQGVMVTVSSASTKGPSVFPLAPCSRSTSESTAALGCLVKDYFPEPVTVSWNSGALTSGVHTFPAVLQSSGLYSLSSVVTVPSSNFGTQTYTCNVDHKPSNTKVDKTVERKCCVECPPCPAPPVAGPSVFLFPPKPKDTLMISRTPEVTCVVVDVSHEDPEVQFNWYVDGVEVHNAKTKPREEQFNSTFRVVSVLTVVHQDWLNGKEYKCKVSNKGLPAPIEKTISKTKGQPREPQVYTLPPSREEMTKNQVSLTCLVKGFYPSDIAVEWESNGQPENNYKTTPPMLDSDGSFFLYSKLTVDKSRWQQGNVFSCSVMHEALHNHYTQKSLSLSPGK
light: DIQMTQAPSSLPASLGDRVTITCRASQDIGNYLRWFQQKPGKSPRLMISGATNLAAGVPSRFSGSRSGSDYSLTISSLESEDMADYYCLQSKESPWTFGGGTKLELKRTVAAPSVFIFPPSDEQLKSGTASVVCLLNNFYPREAKVQWKVDNALQSGNSQESVTEQDSKDSTYSLSSTLTLSKADYEKHKVYACEVTHQGLSSPVTKSFNRGEC
- re-population of the cleared area (wound closure) [3]: reduced the re-population of the cleared area
